Among the data in ChEMBL document CHEMBL3603806, “Discovery of a 6-(pyridin-3-yl)benzo[d]thiazole template for optimization of hedgehog and PI3K/AKT/mTOR dual inhibitors” (Bioorg Med Chem Lett, 2015) are IC50, solubility and inhibition values, retold here.

Series [1] concerns the target Protein smoothened (Mus musculus, UniProt P56726). Briefly: Inhibition of SMO in mouse NIH/3T3 cells assessed as inhibition of SAG-induced hedgehog-mediated luminescence signaling by GRE-luciferase reporter gene assay. The class given is cell-based.
Series [2] can be described thus: Solubility of the compound. It counts as physicochemical.
Series [3] addresses T1, Phosphatidylinositol 4,5-bisphosphate 3-kinase catalytic subunit delta isoform (Homo sapiens) (UniProt O00329).
T1 sequence (whole entry): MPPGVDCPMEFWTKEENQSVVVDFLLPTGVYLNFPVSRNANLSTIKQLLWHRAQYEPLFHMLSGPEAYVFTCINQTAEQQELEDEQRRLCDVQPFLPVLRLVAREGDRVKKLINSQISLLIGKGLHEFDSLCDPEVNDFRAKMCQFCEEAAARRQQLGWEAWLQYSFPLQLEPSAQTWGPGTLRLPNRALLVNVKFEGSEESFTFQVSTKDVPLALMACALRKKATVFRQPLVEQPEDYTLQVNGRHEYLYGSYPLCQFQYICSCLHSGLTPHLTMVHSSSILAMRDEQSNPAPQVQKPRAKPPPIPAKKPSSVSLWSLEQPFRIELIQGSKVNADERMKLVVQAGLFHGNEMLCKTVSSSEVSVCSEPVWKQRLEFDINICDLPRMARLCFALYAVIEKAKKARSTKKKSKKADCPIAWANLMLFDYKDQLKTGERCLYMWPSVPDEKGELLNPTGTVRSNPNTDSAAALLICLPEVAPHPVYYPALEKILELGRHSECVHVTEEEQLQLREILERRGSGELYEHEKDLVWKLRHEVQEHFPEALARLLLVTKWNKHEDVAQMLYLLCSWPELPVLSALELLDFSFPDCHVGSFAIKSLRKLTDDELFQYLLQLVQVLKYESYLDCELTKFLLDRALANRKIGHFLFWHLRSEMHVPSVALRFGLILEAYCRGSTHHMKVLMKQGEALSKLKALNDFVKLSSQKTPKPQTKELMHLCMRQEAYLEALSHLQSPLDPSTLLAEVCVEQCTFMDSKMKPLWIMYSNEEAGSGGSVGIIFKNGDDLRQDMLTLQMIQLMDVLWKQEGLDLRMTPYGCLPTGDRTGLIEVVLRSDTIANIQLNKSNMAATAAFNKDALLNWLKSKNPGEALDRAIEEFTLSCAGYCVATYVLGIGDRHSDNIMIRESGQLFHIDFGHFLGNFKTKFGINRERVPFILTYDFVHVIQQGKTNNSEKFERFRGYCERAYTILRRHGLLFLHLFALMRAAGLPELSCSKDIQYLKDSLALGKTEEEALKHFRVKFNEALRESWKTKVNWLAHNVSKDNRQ
Briefly: Inhibition of N-terminal poly-His tagged human p110-delta expressed in Sf9 cells incubated for 20 mins by alpha screen assay.

In series [4] the target is T2, Phosphatidylinositol 4,5-bisphosphate 3-kinase catalytic subunit alpha isoform (Homo sapiens, UniProt P42336). Briefly: Inhibition of PI3Kalpha (unknown origin) assessed as reduction in luminescence signaling at 1 uM by kinase-Glo plus luminescent kinase assay. A general note: In Kinase-Glo more light means more ATP remaining.
The target of series [5] is T2, Phosphatidylinositol 4,5-bisphosphate 3-kinase catalytic subunit alpha isoform. In words: Inhibition of PI3Kalpha (unknown origin) assessed as reduction in luminescence signaling by kinase-Glo plus luminescent kinase assay.
The target in series [6] is Protein smoothened (Homo sapiens, UniProt Q99835). Briefly: Inhibition of human Smo expressed in human U2OS cells assessed as reduction in BODIPY-cyclopamine fluorescence signaling by competitive displacement assay. The class given is cell-based.

The structures appear in SMILES notation. pIC50: −log10 of the molar value. Activity calls are given as the source filed them. The calls are words filed in the database; no cut-off is given here.

Chain of Protein smoothened (Mus musculus, UniProt P56726) (P56726 whole entry): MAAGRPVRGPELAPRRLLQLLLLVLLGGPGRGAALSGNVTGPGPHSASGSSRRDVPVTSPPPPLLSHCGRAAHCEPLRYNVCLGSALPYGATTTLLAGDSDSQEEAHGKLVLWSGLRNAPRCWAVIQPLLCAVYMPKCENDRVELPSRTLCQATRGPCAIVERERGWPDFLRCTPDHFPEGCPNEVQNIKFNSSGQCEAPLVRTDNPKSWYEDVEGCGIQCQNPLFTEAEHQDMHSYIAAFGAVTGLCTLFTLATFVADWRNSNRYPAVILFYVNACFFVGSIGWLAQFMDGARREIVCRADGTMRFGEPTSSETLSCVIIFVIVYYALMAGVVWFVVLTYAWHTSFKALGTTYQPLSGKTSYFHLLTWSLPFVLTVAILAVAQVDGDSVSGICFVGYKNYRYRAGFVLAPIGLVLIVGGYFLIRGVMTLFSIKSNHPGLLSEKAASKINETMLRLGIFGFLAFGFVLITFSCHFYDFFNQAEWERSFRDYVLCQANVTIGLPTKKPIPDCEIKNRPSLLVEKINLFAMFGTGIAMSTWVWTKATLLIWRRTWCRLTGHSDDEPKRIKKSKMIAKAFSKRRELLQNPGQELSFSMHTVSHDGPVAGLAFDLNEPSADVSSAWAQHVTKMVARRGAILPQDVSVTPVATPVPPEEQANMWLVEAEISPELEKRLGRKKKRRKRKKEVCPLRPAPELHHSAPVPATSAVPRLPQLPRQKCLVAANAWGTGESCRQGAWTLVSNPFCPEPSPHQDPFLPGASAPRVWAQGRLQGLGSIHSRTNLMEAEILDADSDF
T2 sequence (P42336 whole entry, canonical isoform): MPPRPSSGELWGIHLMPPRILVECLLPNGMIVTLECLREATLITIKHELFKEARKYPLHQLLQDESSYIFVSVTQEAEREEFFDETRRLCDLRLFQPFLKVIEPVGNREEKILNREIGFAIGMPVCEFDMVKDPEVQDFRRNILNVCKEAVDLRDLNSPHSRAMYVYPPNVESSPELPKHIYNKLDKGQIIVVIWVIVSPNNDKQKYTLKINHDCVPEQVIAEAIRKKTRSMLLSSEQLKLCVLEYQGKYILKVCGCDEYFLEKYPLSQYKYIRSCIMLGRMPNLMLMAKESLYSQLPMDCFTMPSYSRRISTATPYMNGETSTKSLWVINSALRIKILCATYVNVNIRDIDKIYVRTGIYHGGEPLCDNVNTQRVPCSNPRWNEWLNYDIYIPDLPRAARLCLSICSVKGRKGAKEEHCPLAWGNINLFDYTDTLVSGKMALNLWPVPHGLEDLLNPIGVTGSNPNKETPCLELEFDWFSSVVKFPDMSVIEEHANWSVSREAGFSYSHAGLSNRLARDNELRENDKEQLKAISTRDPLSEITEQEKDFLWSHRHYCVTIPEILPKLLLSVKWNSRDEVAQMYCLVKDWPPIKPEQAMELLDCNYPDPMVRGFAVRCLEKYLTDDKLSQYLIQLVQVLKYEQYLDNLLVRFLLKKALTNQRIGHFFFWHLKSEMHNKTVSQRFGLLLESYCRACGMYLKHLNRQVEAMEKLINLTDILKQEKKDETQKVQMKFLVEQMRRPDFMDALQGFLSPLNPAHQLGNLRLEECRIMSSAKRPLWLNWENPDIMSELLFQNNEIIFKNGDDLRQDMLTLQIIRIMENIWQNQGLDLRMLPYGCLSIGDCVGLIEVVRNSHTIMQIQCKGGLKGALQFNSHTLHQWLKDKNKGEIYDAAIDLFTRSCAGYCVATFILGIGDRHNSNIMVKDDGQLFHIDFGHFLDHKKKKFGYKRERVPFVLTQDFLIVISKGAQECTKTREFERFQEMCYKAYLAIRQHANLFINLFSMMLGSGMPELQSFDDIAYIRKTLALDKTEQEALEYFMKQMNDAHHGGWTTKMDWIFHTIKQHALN
Chain of Protein smoothened (Homo sapiens, UniProt Q99835) (Q99835 whole entry): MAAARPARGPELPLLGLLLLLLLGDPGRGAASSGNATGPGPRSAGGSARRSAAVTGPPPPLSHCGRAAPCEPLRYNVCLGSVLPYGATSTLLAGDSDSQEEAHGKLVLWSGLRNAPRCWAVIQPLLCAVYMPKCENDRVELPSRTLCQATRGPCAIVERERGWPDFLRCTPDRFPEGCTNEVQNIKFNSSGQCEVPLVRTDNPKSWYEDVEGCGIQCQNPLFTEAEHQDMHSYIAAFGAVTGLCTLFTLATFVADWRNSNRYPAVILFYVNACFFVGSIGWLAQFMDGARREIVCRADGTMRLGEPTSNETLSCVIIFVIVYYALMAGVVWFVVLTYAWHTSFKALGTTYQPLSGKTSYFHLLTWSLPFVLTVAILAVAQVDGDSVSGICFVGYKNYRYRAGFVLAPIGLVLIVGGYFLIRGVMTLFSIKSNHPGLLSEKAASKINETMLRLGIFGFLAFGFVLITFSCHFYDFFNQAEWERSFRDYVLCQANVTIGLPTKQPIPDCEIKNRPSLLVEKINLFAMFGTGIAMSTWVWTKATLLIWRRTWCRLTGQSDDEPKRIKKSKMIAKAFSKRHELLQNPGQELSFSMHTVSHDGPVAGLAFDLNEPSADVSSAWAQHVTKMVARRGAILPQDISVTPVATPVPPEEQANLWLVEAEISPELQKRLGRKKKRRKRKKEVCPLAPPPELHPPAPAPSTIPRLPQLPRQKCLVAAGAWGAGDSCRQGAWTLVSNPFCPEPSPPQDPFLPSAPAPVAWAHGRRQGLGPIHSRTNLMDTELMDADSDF

As for `CC(=O)Nc1nc2ccc(-c3cnc(Cl)c(NC(=O)c4ccc(C)cc4)c3)cc2s1`, on Protein smoothened [1], the pIC50 is 6.09. In the case of `CC(=O)Nc1nc2ccc(-c3cnc(Cl)c(NCc4ccccc4)c3)cc2s1`, on Protein smoothened [1], the pIC50 is 6.03. For the compound `O=C(Nc1cc(-c2ccc3nc(NC4CC4)sc3c2)cnc1Cl)c1cccc(Cl)c1`, the pIC50 at Protein smoothened [1] was 6.82. Consider `O=C(Nc1cc(-c2ccc3nc(NCC4CC4)sc3c2)cnc1Cl)c1cccc(Cl)c1`, for which the pIC50 on Protein smoothened [1] is 6.72. As for `CC(=O)Nc1nc2ccc(-c3cnc(Cl)c(NC(=O)c4ccccc4Cl)c3)cc2s1`, the pIC50 on Protein smoothened [1] is 5.39.

Consider `CC(=O)Nc1nc2ccc(-c3cnc(Cl)c(NS(=O)(=O)c4ccc(F)cc4)c3)cc2s1`, for which, on Protein smoothened [1], the pIC50 is 6.92. Besides, in series [2], the solubility result is recorded as “Insoluble”. For the same compound, in series [3], the inhibition entry was “Active”.

Take `CC(=O)Nc1nc2ccc(-c3cnc(Cl)c(NC(=O)c4ccc(F)cc4)c3)cc2s1`: the pIC50 on Protein smoothened [1] was 6.77. The inhibition in series [4] amounted to 48%. Regarding `CC(=O)Nc1nc2ccc(-c3cnc(Cl)c(NC(C#N)c4ccccc4)c3)cc2s1` (configuration not stated), the pIC50 in series [5] is 6.31; at Protein smoothened [1], 7.00. Also, the inhibition in series [4] came out at 85%. Take `CC(=O)Nc1nc2ccc(-c3cnc(Cl)c(NC(=O)Cc4ccccc4)c3)cc2s1`: on Protein smoothened [1], the pIC50 was 5.47. Regarding `CC(=O)Nc1nc2ccc(-c3cnc(Cl)c(NC(=O)c4ccccc4F)c3)cc2s1`, the pIC50 at Protein smoothened [1] was under 5.00. Take `CC(=O)Nc1nc2ccc(-c3cnc(Cl)c(NC(=O)C4CC4)c3)cc2s1`: the pIC50 at Protein smoothened [1] was under 5.00.

`CC(=O)Nc1nc2ccc(-c3cnc(Cl)c(NC(=O)c4cccc(Cl)c4)c3)cc2s1`: the pIC50 in series [5] is 6.01; on Protein smoothened [1], 7.39; at Protein smoothened [6], 8.00. Also, the inhibition in series [4] was determined as 93%. `O=C(Nc1cc(-c2ccc3nc(NC4CC4)sc3c2)cnc1Cl)c1ccccc1`: the pIC50 on Protein smoothened [1] is 6.68. In the case of `CC(=O)Nc1nc2ccc(-c3cnc(Cl)c(NC(=O)c4ccccc4)c3)cc2s1`, the pIC50 was 7.19 on Protein smoothened [1] and 8.25 on Protein smoothened [6]. Also, in series [4], the inhibition is 9%. Regarding `O=C(Nc1cc(-c2ccc3nc(NCC4CC4)sc3c2)cnc1Cl)c1ccccc1`, the pIC50 at Protein smoothened [1] is 6.82.

`CC(=O)Nc1nc2ccc(-c3cnc(Cl)c(NC(=O)c4ccc(Cl)cc4)c3)cc2s1`: the pIC50 at Protein smoothened [1] was under 5.00. Turning to `CC(=O)Nc1nc2ccc(-c3cnc(Cl)c(NC(=O)c4cccc(F)c4)c3)cc2s1`, the pIC50 at Protein smoothened [1] is 5.30.

What is called pIC50 is the negative decadic logarithm of the IC50, by convention in mol/L. The inhibition is how much of the control response was suppressed.
